Patent US20230131376A1, “ADJUVANT-ANTIBIOTIC COMBINATION AGAINST GRAM-NEGATIVE BACTERIA” (University of Notre Dame du Lac, priority 2020, published 2023)

Legend:
Francisella philomiragia = conditions: tested at 50 μM; cited from earlier work
E. coli YD626 (parent) = experiment: Colistin potentiation, broth microdilution, E. coli YD626 parent; type: cell-based
Source text: (§1) Broth microdilution method for antibiotic potentiation.

F. novicida = conditions: tested at 50 μM; cited from earlier work
E. coli YD626 +mcr-1 = experiment: Colistin potentiation, broth microdilution, E. coli YD626 +mcr-1; conditions: no adjuvant
[1] = system: K. pneumoniae 2210291 +mcr-1; experiment: Colistin potentiation, broth microdilution, K. pneumoniae 2210291 +mcr-1; conditions: no adjuvant
A. baumannii 3941 = experiment: Colistin potentiation, chromosomally colistin resistant A. baumannii 3941; type: cell-based; conditions: no adjuvant
Source text: as §1

[2] = system: A. baumannii 4106 infection in G. mellonella larvae; experiment: Galleria mellonella model of A. baumannii infection; type: in vivo; conditions: 50 mg/kg; 6×10^5 CFU A. baumannii 4106; day 4
Description: Galleria mellonella Assay. G. mellonella larvae (Speedy Worm, Alexandria, Minn.) were used within 10 days of shipment from the vendor. After reception of worms, larvae were kept in the dark at room temperature for at least 24 h. before infection. Larvae weighing between 200 to 300 mg were used in the survival assay. Using a 10 μL glass syringe (Hamilton, Reno, Nev.) fitted with a 30 G needle (Exel International, St. Petersburg, Fla.), a 5 μL solution of the desired compound(s) and concentration(s) were injected into the last left proleg. Colistin was dosed at 50 mg/kg dissolved in DI water, 2-AIs at 50 mg/kg dissolved in DMSO, tigecycline at 100 mg/kg dissolved in DMSO, and DMSO was injected for a negative control. For bacterial injections, 1 mL from an overnight culture of A. baumannii 4106 in Miller LB broth (Fisher Scientific U.S.) was subcultured into 9 mL Miller LB broth and incubated for an additional 3 h before use. The 10 mL solution was centrifuged and washed three times with phosphate buffer solution (PBS, Fisher Scientific U.S.) before diluting to 6×10^5 CFUs in PBS. Then, 2.5 h. after the first injection, a second 5 μL injection containing 6×10^5 CFUs of A. baumannii 4106 was injected into the second to last left proleg. Injected worms were left at room temperature in the dark while being assessed at 24 h intervals over 4 days. […] Experiment was repeated 3 times using 10 larvae per experimental group. No ethics approval was needed for G. mellonella.

K. pneumoniae C3 = experiment: Colistin potentiation, chromosomally colistin resistant K. pneumoniae C3; type: cell-based; conditions: no adjuvant
Source text: as §1

[3] = system: K. pneumoniae 2210291 (parent); experiment: Colistin potentiation, broth microdilution, K. pneumoniae 2210291 parent; type: cell-based; conditions: no adjuvant
Source text: as §1

[4] = system: A. baumannii 17978 +mcr-1; experiment: Colistin potentiation, broth microdilution, A. baumannii 17978 +mcr-1; conditions: no adjuvant
[5] = system: A. baumannii 17978 (parent); experiment: Colistin potentiation, broth microdilution, A. baumannii 17978 parent; type: cell-based; conditions: no adjuvant
Source text: as §1

A. baumannii 4106 = experiment: Colistin potentiation, chromosomally colistin resistant A. baumannii 4106; type: cell-based; conditions: no adjuvant
Source text: as §1

K. pneumoniae B9 = experiment: Colistin potentiation, chromosomally colistin resistant K. pneumoniae B9; type: cell-based; conditions: no adjuvant; K. pneumoniae B9
Source text: as §1

In the case of `CCCCc1ccc(C(=O)NCCc2c[nH]c3ccccc23)cc1` [Compound 1a], the “fold reduction in the colistin MIC” value (Francisella philomiragia) is listed as 32 fold, the “fold reduction of colistin MIC” value (E. coli YD626 (parent); adjuvant at 50 μM, parent E. coli strain) is listed as 16 fold and the “fold reduction in the colistin MIC” value (F. novicida) is listed as “two-fold”.
In the case of colistin [reference compound], the “colistin MIC, colistin alone” value (E. coli YD626 +mcr-1) is reported as 8 µg/mL, the “colistin MIC, colistin alone” value [1] is reported as 16 µg/mL and the “colistin MIC, colistin alone” value (A. baumannii 3941) is reported as 512 µg/mL. The “survival of inoculated worms after 4 days, monotherapy” value [2] was 7%, the “colistin MIC, colistin alone” value (K. pneumoniae C3) was 512 µg/mL and the “colistin MIC, colistin alone” value (E. coli YD626 (parent); no adjuvant, E. coli YD626 parent) was 1 µg/mL. The “colistin MIC, colistin alone” value [3] was 1 µg/mL, the “colistin MIC, colistin alone” value [4] was 16 µg/mL and the “colistin MIC, colistin alone” value [5] was 2 µg/mL. For the same molecule, the “colistin MIC, colistin alone” value (A. baumannii 4106) was 1024 µg/mL and the “colistin MIC, colistin alone” value (K. pneumoniae B9) was 512 µg/mL.
